Structures are written as SMILES.

Common to all, as to type: functional
The test system of test [1] is Haemonchus contortus. Kind of test: Parasiticidal activity against benzimidazole and levamisole-resistant Haemonchus contortus Lawes by larval assay.
For test [2], the system named is Haemonchus contortus. Kind of test: Parasiticidal activity against Haemonchus contortus by larval assay.
Test [3] deals with Ctenocephalides felis. Put plainly: Parasiticidal activity against Ctenocephalides felis after 8 hrs by cat flea assay. The arrangement: concentration or dose not given beside the values.
Test [4] relates to Teladorsagia circumcincta. Put plainly: Parasiticidal activity against Ostertagia circumcincta McMaster.
Test [5] has as its system Trichostrongylus colubriformis. Kind of test: Parasiticidal activity against Trichostrongylus colubriformis.
In test [6] the test system is Haemonchus contortus. Kind of test: Parasiticidal activity against avermectin-resistant Haemonchus contortus CAVR by larval assay.
In test [7] the test system is Ctenocephalides felis. Put plainly: Parasiticidal activity against Ctenocephalides felis assessed as mortality after 24 hrs by cat flea assay. The arrangement: concentration or dose not given beside the values.
For test [8], the system named is Ctenocephalides felis. Kind of test: Parasiticidal activity against Ctenocephalides felis by cat flea assay.
Test [9] has as its system Rhipicephalus sanguineus. Put plainly: Parasiticidal activity against Rhipicephalus sanguineus assessed per tick by brown dog tick assay.
Test [10] relates to Rhipicephalus sanguineus. Kind of test: Parasiticidal activity against Rhipicephalus sanguineus assessed as mortality at 10 ug/tick by brown dog tick assay.
Test [11] concerns Rhipicephalus sanguineus. Put plainly: Parasiticidal activity against Rhipicephalus sanguineus assessed as mortality after 24 hrs by brown dog tick assay. The arrangement: concentration or dose not given beside the values.

As to `C/C(=N\OCc1ccc(C(F)(F)F)cc1C(F)(F)F)c1cc(Cl)ccc1NS(=O)(=O)C(F)(F)F`, the LD99 in the test on Haemonchus contortus [1] was found to be 0.53 µM; in the test with Haemonchus contortus [2] it was 0.22 µM; in test [4] it was 1.1 µM; in [5], 2.2 µM; with Haemonchus contortus [6], 0.53 µM. In addition, the Activity in the test on Ctenocephalides felis [3] amounted to 2%.
On to `CC/C(=N\OCC1CCCCC1)c1cc(Cl)ccc1NS(=O)(=O)C(F)(F)F`, for which the Activity in the test with Ctenocephalides felis [7], with Rhipicephalus sanguineus [10] and in the test with Rhipicephalus sanguineus [11] was 100% throughout. In the test with Ctenocephalides felis [8], this molecule yielded an LC50 of 29 ng/cm2. Moreover, the LD50 in the test with Rhipicephalus sanguineus [9] came to 3.4 µg. In the test on Haemonchus contortus [2], this molecule yielded an LD99 of 7 µM.
`O=S(=O)(Nc1ccc(Cl)cc1/C=N/OCc1ccc(Cl)cc1Cl)C(F)(F)F` displayed an LD99 in the test with Haemonchus contortus [2] of 2 µM. This molecule also displayed an Activity with Ctenocephalides felis [3] of 12%.
In turn, `CC/C(=N\OCc1ccc(C(F)(F)F)cc1C(F)(F)F)c1cc(Cl)ccc1NS(=O)(=O)C(F)(F)F` registered an LC50 in the test on Ctenocephalides felis [8] of 19 ng/cm2. The same molecule registered an LD99 with Haemonchus contortus [2] of 0.56 µM. The Activity in the test with Ctenocephalides felis [3] stood at 100%; in the test with Rhipicephalus sanguineus [11] it was 88%.
For the molecule `CC(C)/C(=N\OCc1ccc(C(F)(F)F)cc1)c1cc(Cl)ccc1NS(=O)(=O)C(F)(F)F`, the LD99 in the test with Haemonchus contortus [2] came out at 2.6 µM. Besides, the Activity in the test with Ctenocephalides felis [3] worked out at 12%.
For `CC(C)/C(=N\OCc1ccc(C(F)(F)F)cc1C(F)(F)F)c1cc(Cl)ccc1NS(=O)(=O)C(F)(F)F`, in that order: 1.5 µM and 10%.
For `CC/C(=N\OCc1ccc(Cl)cc1Cl)c1cc(Cl)ccc1NS(=O)(=O)C(F)(F)F`, in that order: 0.84 µM and 94%.
